Experimental findings from patent publication US20150266857A1, “NOVEL 3-INDOL SUBSTITUTED DERIVATIVES, PHARMACEUTICAL COMPOSITIONS AND METHODS FOR USE” (iTeos Therapeutics, priority 2014, published 2015) are described below.

The target in test [1] is T1, human recombinant TDO2 enzyme (Homo sapiens, UniProt P48775).
T1 construct: made in house
The test is described as follows: Assay for TDO2 enzymatic activity determination. Particulars: human recombinant TDO2, L-Trp 1 mM, kynurenine absorbance at 480 nm. The class given is biochemical. As for the experimental part:
To measure the TDO2 activity, the procedure described in Dolusic et al. J. Med. Chem.; 2011, 54, […] was adapted: the reaction mixture contained (final concentrations) potassium phosphate buffer (50 mM, pH 7.5), ascorbic acid (0.25 M), methylene blue (0.125 μM), catalase (40 units/mL, from bovine liver, Sigma), and human recombinant TDO2 enzyme (prepared as described in Dolusic et al. J. Med. Chem.; 2011, 54, 5320-5334; 0.9 μg) without or with the compounds of the present invention at the indicated concentrations (total volume 112.5 μL). The reaction was initiated by the addition of 37.5 μL of L-Trp (final concentration 1 mM) at room temperature. The reaction was conducted at room temperature during one hour and stopped by the addition of 30 μL of 30% (w/v) trichloroacetic acid.
To convert N-formylkynurenine into kynurenine, the reaction mixture was incubated at 65° C. for 30 min. Then 150 μL of the reaction mixture was mixed with 120 μL of 2.5% (w/v) 4-(dimethylamino)-benzaldehyde in acetic acid and incubated for 5 min at room temperature. Kynurenine concentrations were determined by measuring the absorbance at 480 nm. A standard curve was made with pure kynurenine. The TDO activity was measured as described above using ten serial concentrations of the compounds of the present invention. Data were fitted using the Prism™ software (GraphPad Software, Inc.) using standard parameters.

The target in test [2] is T2, human glioblastoma A172 cells, naturally expressing hTDO2 (Homo sapiens, UniProt P48775).
T2 construct: human glioblastoma A172 cells, naturally expressing hTDO2; endogenous in cells; host or cells: human glioblastoma A172 cells (ATCC CRL-1620)
Description: Cellular assay for TDO2 activity, A172 cells. Format: cell-based. Particulars: overnight incubation, kynurenine in supernatant. Here is the method:
The compounds of formula I inhibit the activity of human TDO2 in cells that constitutively express TDO2, such as A172 cells. A172 is a cell line derived from human brain glioblastoma cells. The cells are available from the American Type Culture Collection (ATCC®) as CRL-1620™
The assay (adapted from Pilotte L et al., Proc Natl Acad Sci USA, 2012, 109(7), 2497-502) was performed in 96-well flat bottom plates seeded with human glioblastoma A172 cells, naturally expressing hTDO2 (prepared as described in Tilman et al., Mol Cancer, 2007, 17(6), 80), at a concentration of 1.25×10^4 cells/well in a final volume of 200 μL. To determine TDO, the cells were incubated overnight at 37° C. at 5% CO2 in IMDM (Invitrogen) supplemented with 2% FBS and 2% penicillin/streptomycin in the presence of the compounds of the present invention, at different concentrations.
The plates were then centrifuged 5 min at 1000 rpm, and 100 μL of the supernatant were collected in a conical plate, 30 uL of TCA 30% were added and a further centrifugated at 3000×g for 10 minutes. 100 μL of the supernatant were collected in a flat bottomed plate and 100 μL of 2% (w/v) 4-(dimethylamino)-benzaldehyde in acetic acid and incubated for 5 min at room temperature. Kynurenine concentrations were determined by measuring the absorbance at 480 nm. A standard curve was made with pure kynurenine. The TDO activity was measured as described above using ten serial concentrations of the compounds of the present invention. Data were fitted using the Prism™ software (GraphPad Software, Inc.) using standard parameters.

By IC50 is commonly meant the midpoint of a concentration-inhibition curve.

T1 sequence (P48775 whole entry): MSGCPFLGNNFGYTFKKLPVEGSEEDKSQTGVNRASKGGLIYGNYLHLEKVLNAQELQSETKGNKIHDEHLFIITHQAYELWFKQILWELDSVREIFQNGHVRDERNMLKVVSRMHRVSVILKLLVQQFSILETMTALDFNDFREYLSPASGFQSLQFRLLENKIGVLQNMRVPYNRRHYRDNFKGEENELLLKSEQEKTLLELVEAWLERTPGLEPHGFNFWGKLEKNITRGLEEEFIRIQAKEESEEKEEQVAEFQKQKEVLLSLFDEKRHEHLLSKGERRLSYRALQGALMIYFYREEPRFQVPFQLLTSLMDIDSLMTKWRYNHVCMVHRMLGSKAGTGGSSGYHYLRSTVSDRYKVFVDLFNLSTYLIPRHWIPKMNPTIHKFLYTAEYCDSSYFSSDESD
T2 sequence (P48775 whole entry): as above

For `NC(=O)Cn1ncc2cc(-c3c[nH]c4cc(F)ccc34)ccc21` [Compound 9, 2-(5-(6-fluoro-1H-indol-3-yl)-1H-indazol-1-yl)acetamide], the IC50 stood at 0.645 µM in test [1] and 0.147 µM in test [2]. On the same counts, the results for `NC(=O)CCn1ncc2cc(-c3c[nH]c4cc(F)ccc34)ccc21` [Compound 12, 3-(5-(6-fluoro-1H-indol-3-yl)-1H-indazol-1-yl)propanamide] are 0.709 µM and 0.517 µM. On to `NC(=O)Cn1cc2ccc(-c3c[nH]c4cc(F)ccc34)cc2n1` [Compound 15, 2-(6-(6-fluoro-1H-indol-3-yl)-2H-indazol-2-yl)acetamide], for which, in test [1], the IC50 was 1.16 µM. With `CC(=O)N1CCC(Cn2cc3ccc(-c4c[nH]c5cc(F)ccc45)cc3n2)CC1` [Compound 16, 1-(4-((6-(6-fluoro-1H-indol-3-yl)-2H-indazol-2-yl)methyl)piperidin-1-yl)ethanone], in test [1], the IC50 was 1.99 µM. Still for that read-out and setting: then `NC(=O)CCn1cc2ccc(-c3c[nH]c4cc(F)ccc34)cc2n1` [Compound 17, 3-(6-(6-fluoro-1H-indol-3-yl)-2H-indazol-2-yl)propanamide], with 0.935 µM; and `Fc1ccc2c(-c3ccc4cn(C5CCNCC5)nc4c3)c[nH]c2c1` [Compound 18, 6-(6-fluoro-1H-indol-3-yl)-2-(piperidin-4-yl)-2H-indazole], with 0.948 µM; and `CC(=O)N1CCC(n2cc3ccc(-c4c[nH]c5cc(F)ccc45)cc3n2)CC1` [Compound 19, 1-(4-(6-(6-fluoro-1H-indol-3-yl)-2H-indazol-2-yl)piperidin-1-yl)ethanone], with 2.19 µM. On to `NC(=O)Cn1cc2cc(-c3c[nH]c4cc(F)ccc34)ccc2n1` [Compound 20, 2-(5-(6-fluoro-1H-indol-3-yl)-2H-indazol-2-yl)acetamide], for which the IC50 worked out at 0.421 µM in test [1] and 0.169 µM in test [2]. Regarding `CC(=O)N1CCC(Cn2cc3cc(-c4c[nH]c5cc(F)ccc45)ccc3n2)CC1` [Compound 21, 1-(4-((5-(6-fluoro-1H-indol-3-yl)-2H-indazol-2-yl)methyl)piperidin-1-yl)ethanone], the IC50 in test [1] was found to be 2.67 µM. For `NC(=O)CCn1cc2cc(-c3c[nH]c4cc(F)ccc34)ccc2n1` [Compound 22, 3-(5-(6-fluoro-1H-indol-3-yl)-2H-indazol-2-yl)propanamide], the IC50 in test [1] came to 0.539 µM; in test [2] it was 0.176 µM. Take `Fc1ccc2c(-c3ccc4nn(C5CCNCC5)cc4c3)c[nH]c2c1` [Compound 23, 5-(6-fluoro-1H-indol-3-yl)-2-(piperidin-4-yl)-2H-indazole]: the IC50 in test [1] was found to be 0.322 µM. On the same count and under the same terms, then `CC(=O)N1CCC(n2cc3cc(-c4c[nH]c5cc(F)ccc45)ccc3n2)CC1` [Compound 24, 1-(4-(5-(6-fluoro-1H-indol-3-yl)-2H-indazol-2-yl)piperidin-1-yl)ethanone], with 0.924 µM; and `Fc1ccc2c(-c3ccc4[nH]cnc4c3)c[nH]c2c1` [Compound 25, 5-(6-fluoro-1H-indol-3-yl)-1H-benzo[d]imidazole], with 0.188 µM.

Take `NC(=O)CCc1nc2cc(-c3c[nH]c4cc(F)ccc34)ccc2[nH]1` [Compound 46, 3-(5-(6-fluoro-1H-indol-3-yl)-1H-benzo[d]imidazol-2-yl)propanamide]: in test [1], the IC50 was 1.33 µM. On to `CS(=O)(=O)N1CCC(c2nc3ccc(-c4c[nH]c5cc(F)ccc45)cc3o2)CC1` [Compound 96, 6-(6-fluoro-1H-indol-3-yl)-2-(1-(methylsulfonyl)piperidin-4-yl)benzo[d]oxazole], for which the results for the IC50 in test [1] and in test [2] were 2.39 µM and 0.589 µM, respectively. On the same counts, the results for `O=C1Cc2cc(-c3c[nH]c4cc(F)ccc34)ccc2N1` [Compound 97, 5-(6-fluoro-1H-indol-3-yl)indolin-2-one] are 0.716 µM and 0.284 µM.

Regarding `Nc1nc2ccc(-c3c[nH]c4cc(F)ccc34)cc2o1` [Compound 98, 6-(6-fluoro-1H-indol-3-yl)benzo[d]oxazol-2-amine], the half-inhibitory concentration (IC50) in test [1] was 0.489 µM; in test [2], 0.293 µM.
